This passage reports IC50 results from patent US10696692B2, “Amido-benzyl sulfone and sulfoxide derivates” (Forma TM, LLC, priority 2012, dated 2020).

Each structure is given as a SMILES string. Where two headings read alike, the source gives them in different places.

Assay [1] concerns A2780 cells. Put plainly: Assay 2: In-Vitro Cell Proliferation Assay (A2780 cells, SRB readout, 72 hours).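 Further: viable cells counted via sulforhodamine B staining, absorbance at 570 nm, after 72 h exposure at 37 °C, DMSO 0.1% as control, media-only background subtracted.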 Type of assay: cell-based. Conditions: A2780 cells, 72 hours, SRB, read-out: Cell Proliferation (IC50).
Assay [2] deals with NAMPT (Homo sapiens (Human), UniProt P43490). Put plainly: Assay 1: Biochemical Inhibition Assay (NAMPT enzymatic reaction, NMN quantified by mass spectrometry).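 Further: recombinant His-tagged human NAMPT preincubated with compound 15 min, then reacted 30 min at rt with 1 µM NAM, 100 µM PRPP, 2.5 mM ATP, NMN product read by RapidFire MS, normalized to L-Cystathionine internal standard.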 The conditions noted are these: read-out: Biochemical (IC50).
NAMPT, sequence (P43490 whole entry): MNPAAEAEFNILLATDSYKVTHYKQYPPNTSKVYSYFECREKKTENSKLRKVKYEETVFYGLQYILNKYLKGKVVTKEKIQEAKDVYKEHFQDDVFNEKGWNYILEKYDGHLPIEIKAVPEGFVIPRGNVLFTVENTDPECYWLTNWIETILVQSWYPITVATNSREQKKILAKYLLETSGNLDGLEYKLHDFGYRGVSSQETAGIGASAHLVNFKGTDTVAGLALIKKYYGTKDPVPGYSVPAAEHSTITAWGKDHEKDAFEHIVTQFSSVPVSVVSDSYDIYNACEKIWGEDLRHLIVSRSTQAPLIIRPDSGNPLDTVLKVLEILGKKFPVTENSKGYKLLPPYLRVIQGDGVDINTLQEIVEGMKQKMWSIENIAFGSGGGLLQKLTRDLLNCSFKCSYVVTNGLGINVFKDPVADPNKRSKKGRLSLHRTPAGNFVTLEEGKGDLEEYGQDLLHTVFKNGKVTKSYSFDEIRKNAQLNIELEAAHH

As for `O=C(NCc1ccc(S(=O)(=O)N2CCC[C@@H](O)C2)cc1)c1cc2cnccc2[nH]1` [Example 50, 1H-Pyrrolo[3,2-c]pyridine-2-carboxylic acid 4-((R)-3-hydroxy-piperidine-1-sulfonyl)-benzylamide], the IC50 in assay [1] (Homo sapiens, A2780, 72 h) is 23.9 nM; in assay [2], 36.2 nM.
For `CCCN1CCC([S+]([O-])c2ccc(CNC(=O)N3Cc4ccncc4C3)cc2)CC1` (stereo not shown) [Example 377, N-[[4-[(1-propyl-4-piperidyl)sulfinyl]phenyl]methyl]-1,3-dihydropyrrolo[3,4-c]pyridine-2-carboxamide] the same measures were 24.1 nM and 24.9 nM.
The like results for `O=C(NCc1ccc(S(=O)(=O)C2CCNCC2)cc1)c1cc2ccncc2s1` [Example 204, N-[[4-(4-piperidylsulfonyl)phenyl]methyl]thieno[2,3-c] pyridine-2-carboxamide] were, in that order, 137 nM and 66 nM.
For `CC(C)(C)OC(=O)N1CC[C@@H]2CN(S(=O)(=O)c3ccc(CNC(=O)c4ccc5nccn5c4)cc3)C[C@@H]21` (racemic) [Example 136, cis-5-(4-{[(Imidazo[1,2-a]pyridine-6-carbonyl)-amino]-methyl}-benzenesulfonyl)-hexahydropyrrolo[3,4-b]pyrrole-1-carboxylic acid tert-butyl ester] the same measures were 39.1 nM and 43.7 nM.
Take `O=C(NCc1ccc(S(=O)(=O)C2CCN(C3CCOCC3)CC2)cc1)c1cnc2nccn2c1` [Example 224, N-[[4-[(1-tetrahydropyran-4-yl-4-piperidyl)sulfonyl]phenyl]methyl]imidazo[1,2-a]pyrimidine-6-carboxamide]: the IC50 in assay [1] (Homo sapiens, A2780, 72 h) stood at 47.9 nM; in assay [2], 3.98 nM.
Turning to `O=C(NCc1ccc(S(=O)(=O)C2CCOCC2)cc1)c1cnc2nccn2c1` [Example 21, Imidazo[1,2-a]pyrimidine-6-carboxylic acid 4-(tetrahydro-pyran-4-sulfonyl)-benzylamide], the figures for the IC50 in assay [1] and in assay [2] were 185 nM and 8.7 nM, respectively.
The like results for `O=C(NCc1ccc(S(=O)(=O)C2CCN(CC(F)(F)F)CC2)cc1)c1cc2cnccc2[nH]1` [Example 66, 1H-Pyrrolo[3,2-c]pyridine-2-carboxylic acid 4-[1-(2,2,2-trifluoro-ethyl)-piperidine-4-sulfonyl]-benzylamide] were, in that order, 3.2 nM and 15.4 nM.
As for `CC(C)(C)OC(=O)N1CCCC12CCCN(S(=O)(=O)c1ccc(CNC(=O)c3ccc4nccn4c3)cc1)CC2` (racemic) [Example 183], the IC50 in assay [1] (Homo sapiens, A2780, 72 h) came out at 0.76 nM; in assay [2], 8.99 nM.
On to `O=C(NCc1ccc(S(=O)(=O)N2CCOC3CNCC32)cc1)c1ccc2nccn2c1` (stereo not shown) [Example 335, N-[[4-(3,4a,5,6,7,7a-hexahydro-2H-pyrrolo[3,4-b][1,4]oxazin-4-ylsulfonyl)phenyl)methyl] imidazo[1,2-a]pyridine-6-carboxamide], for which the IC50 came to 2000 nM in assay [1] and 965 nM in assay [2].
For `CC(C)(C)OC(=O)N1CCC2(CCN(S(=O)(=O)c3ccc(CNC(=O)c4ccc5nccn5c4)cc3)C2)C1` (stereo not shown) [Example 241, tert-butyl 2-[4-[(imidazo[1,2-a]pyridine-6-carbonylamino)methyl]phenyl] sulfonyl-2,7-diazaspiro[4.4]nonane-7-carboxylate], the IC50 was found to be 4.14 nM in assay [1] (Homo sapiens, A2780, 72 h) and 14.4 nM in assay [2].
For `CC(C)(C)OC(=O)N1CC2CN(S(=O)(=O)c3ccc(CNC(=O)c4ccc5nccn5c4)cc3)CC2C1` (racemic) [Example 137, cis-5-(4-{[(Imidazo[1,2-a]pyridine-6-carbonyl)-amino]-methyl}-benzenesulfonyl)-hexahydro-pyrrolo[3,4-c]pyrrole-2-carboxylic acid tert-butyl ester] the same measures were 4.23 nM and 10.5 nM.
